Test results reported in patent US20260365670A1, “EGFR INHIBITORS AND USES THEREOF” (DIZAL (JIANGSU) PHARMACEUTICAL CO., LTD., priority 2022, published 2026).
Like-named read-outs stand apart in the source and are kept apart here.

Experiments:
[1] = target: T1, EGFR Exon19Del/T790M (Homo sapiens, UniProt P00533, DEL746-750/T790M); assay: Inhibition of EGFR Exon19Del/T790M biochemical enzymatic activity (HTRF); details: 1 mM ATP
T1 construct: purchased Carna Bio
Procedure, shortened: (§1)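 Kinase activity is measured by HTRF detection of biotinylated TK substrate (1 μM) phosphorylation at 1 mM ATP. Incubation lasts 1 h at room temperature before an EDTA stop, and IC50 is fitted with a four-parameter logistic model.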

[2] = target: T2, EGFR (C797S L858R) (Homo sapiens, UniProt P00533, C797S/L858R); assay: Inhibition of EGFR (C797S L858R) biochemical enzymatic activity (HTRF); details: 1 mM ATP
T2 construct: purchased signalchem
Procedure, shortened: as §1

[3] = system: Ba/F3 cells expressing EGFR mutations; assay: Cell proliferation assay, Ba/F3 cells expressing EGFR mutations (CellTiter-Glo, 72 hours); type: cell-based
Procedure, shortened: (§2)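 In RPMI1640 medium (PC-9 with 10% FBS), each cell line was seeded at its own density: Ba/F3 5000 and PC-9 500 per well. A compound series was added the next day, with a time-zero viability plate read in parallel. Percent proliferation was subtracted for G0 and referenced to DMSO, and GI50 was derived by curve fitting.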

[4] = target: T3, EGFR wild type (Homo sapiens, UniProt P00533); assay: Inhibition of EGFR wild type biochemical enzymatic activity (HTRF); details: 1 mM ATP
T3 construct: purchased Carna Bio
Procedure, shortened: as §1

[5] = target: T4, EGFR Exon19Del (Homo sapiens, UniProt P00533, DEL746-750); assay: Inhibition of EGFR Exon19Del biochemical enzymatic activity (HTRF); details: read-out: IC50 @Del19
T4 construct: purchased Carna Bio
Procedure, shortened: as §1

[6] = target: T5, EGFR L858R/T790M (Homo sapiens, UniProt P00533, L858R/T790M); assay: Inhibition of EGFR L858R/T790M biochemical enzymatic activity (HTRF); details: 1 mM ATP
T5 construct: purchased Carna Bio
Procedure, shortened: as §1

[7] = target: T6, EGFR (d746-750 C797S) (Homo sapiens, UniProt P00533, C797S/DEL746-750); assay: Inhibition of EGFR (d746-750 C797S) biochemical enzymatic activity (HTRF); details: 1 mM ATP
T6 construct: purchased signalchem
Procedure, shortened: as §1

[8] = target: T7, EGFR[T790M/C797S/L858R] (Homo sapiens, UniProt P00533, C797S/L858R/T790M); assay: Inhibition of EGFR[T790M/C797S/L858R] biochemical enzymatic activity (HTRF); details: 1 mM ATP
T7 construct: purchased Carna Bio
Procedure, shortened: as §1

[9] = target: T8, EGFR[T790M/C797S/d746-750] (Homo sapiens, UniProt P00533, C797S/DEL746-750/T790M); assay: Inhibition of EGFR[T790M/C797S/d746-750] biochemical enzymatic activity (HTRF)
T8 construct: purchased Carna Bio
Procedure, shortened: as §1

[10] = system: A-431; assay: Cell proliferation assay, A-431 cells (GI50, Table 6); type: cell-based
[11] = target: T9, EGFR L858R (Homo sapiens, UniProt P00533, L858R); assay: Inhibition of EGFR L858R biochemical enzymatic activity (HTRF); details: 1 mM ATP
T9 construct: purchased Carna Bio
Procedure, shortened: as §1

[12] = system: PC-9; assay: Cell proliferation assay, PC-9 cells (CellTiter-Glo, 72 hours); type: cell-based; details: PC9 cells, read-out: GI50 PC9
Procedure, shortened: as §2

[13] = EGFR Exon19Del/T790M, 1 h at room temperature, read-out: IC50 @Del19-T790M
[14] = EGFR (C797S L858R), 1 h at room temperature, read-out: IC50 @L858-C797S
[15] = BaF3 cells, EGFR DEL19 - C797S, read-out: GI50 DEL19 - C797S/BaF3
[16] = BaF3 cells, EGFR DEL19 - T790-C797S, read-out: GI50 DEL19 - T790-C797S/BaF3
[17] = BaF3 cells, EGFR L858R - C797S, read-out: GI50 L858R - C797S/BaF3
[18] = BaF3 cells, EGFR L858R - T790-C797S, read-out: GI50 L858R - T790-C797S/BaF3
[19] = BaF3 cells, EGFR L858R - T790M, read-out: GI50 L858R - T790M/BaF3
[20] = BaF3 cells, EGFR L858R, read-out: GI50 L858R/BaF3
[21] = EGFR DEL19 - T790M, read-out: GI50 DEL19 - T790M
[22] = EGFR wild type, 1 h at room temperature, read-out: IC50 @WT
[23] = EGFR Exon19Del, 1 mM ATP, 1 h at room temperature
[24] = EGFR L858R/T790M, 1 h at room temperature, read-out: IC50 @L858R-T790M
[25] = EGFR (d746-750 C797S), 1 h at room temperature, read-out: IC50 @Del19-C797S
[26] = EGFR[T790M/C797S/L858R], 1 h at room temperature, read-out: IC50 @T790M- C797S - L858R
[27] = EGFR[T790M/C797S/d746-750], 1 mM ATP, 1 h at room temperature, read-out: IC50 @T790M - C797S - Del19
[28] = 1 h at room temperature, read-out: IC50 @L858R
[29] = EGFR Del19-T790M, 1 h, room temperature, read-out: IC50 (nM) @Del19-T790M
[30] = EGFR L858-C797S, 1 h, room temperature, read-out: IC50 (nM) @L858-C797S
[31] = Mus musculus, BaF3, 72 h, BaF3 cells, EGFR DEL19 - C797S, read-out: GI50 DEL19 - C797S/BaF3
[32] = Mus musculus, BaF3, 72 h, BaF3 cells, EGFR DEL19 - T790-C797S, read-out: GI50 DEL19 - T790-C797S/BaF3
[33] = Mus musculus, BaF3, 72 h, BaF3 cells, EGFR L858R - C797S, read-out: GI50 L858R - C797S/BaF3
[34] = Mus musculus, BaF3, 72 h, BaF3 cells, EGFR L858R - T790-C797S, read-out: GI50 L858R - T790-C797S/BaF3
[35] = Mus musculus, BaF3, 72 h, BaF3 cells, EGFR L858R - T790M, read-out: GI50 L858R - T790M/BaF3
[36] = Mus musculus, BaF3, 72 h, BaF3 cells, EGFR L858R, read-out: GI50 L858R/BaF3
[37] = Mus musculus, BaF3, 72 h, EGFR DEL19 - T790M, read-out: GI50 DEL19 - T790M
[38] = EGFR WT, 1 h, room temperature, read-out: IC50 (nM) @WT
[39] = EGFR Del19, 1 mM ATP, 1 h, room temperature
[40] = EGFR L858R-T790M, 1 h, room temperature, read-out: IC50 (nM) @L858R-T790M
[41] = EGFR Del19-C797S, 1 h, room temperature, read-out: IC50 (nM) @Del19-C797S
[42] = EGFR T790M-C797S-L858R, 1 h, room temperature, read-out: IC50 (nM) @T790M- C797S - L858R
[43] = EGFR T790M-C797S-Del19, 1 mM ATP, 1 h, room temperature, read-out: IC50 (nM) @T790M - C797S - Del19
[44] = Homo sapiens, A-431, A-431 cells
[45] = 1 h, room temperature, read-out: IC50 (nM) @L858R

T3 sequence (P00533 25-1210): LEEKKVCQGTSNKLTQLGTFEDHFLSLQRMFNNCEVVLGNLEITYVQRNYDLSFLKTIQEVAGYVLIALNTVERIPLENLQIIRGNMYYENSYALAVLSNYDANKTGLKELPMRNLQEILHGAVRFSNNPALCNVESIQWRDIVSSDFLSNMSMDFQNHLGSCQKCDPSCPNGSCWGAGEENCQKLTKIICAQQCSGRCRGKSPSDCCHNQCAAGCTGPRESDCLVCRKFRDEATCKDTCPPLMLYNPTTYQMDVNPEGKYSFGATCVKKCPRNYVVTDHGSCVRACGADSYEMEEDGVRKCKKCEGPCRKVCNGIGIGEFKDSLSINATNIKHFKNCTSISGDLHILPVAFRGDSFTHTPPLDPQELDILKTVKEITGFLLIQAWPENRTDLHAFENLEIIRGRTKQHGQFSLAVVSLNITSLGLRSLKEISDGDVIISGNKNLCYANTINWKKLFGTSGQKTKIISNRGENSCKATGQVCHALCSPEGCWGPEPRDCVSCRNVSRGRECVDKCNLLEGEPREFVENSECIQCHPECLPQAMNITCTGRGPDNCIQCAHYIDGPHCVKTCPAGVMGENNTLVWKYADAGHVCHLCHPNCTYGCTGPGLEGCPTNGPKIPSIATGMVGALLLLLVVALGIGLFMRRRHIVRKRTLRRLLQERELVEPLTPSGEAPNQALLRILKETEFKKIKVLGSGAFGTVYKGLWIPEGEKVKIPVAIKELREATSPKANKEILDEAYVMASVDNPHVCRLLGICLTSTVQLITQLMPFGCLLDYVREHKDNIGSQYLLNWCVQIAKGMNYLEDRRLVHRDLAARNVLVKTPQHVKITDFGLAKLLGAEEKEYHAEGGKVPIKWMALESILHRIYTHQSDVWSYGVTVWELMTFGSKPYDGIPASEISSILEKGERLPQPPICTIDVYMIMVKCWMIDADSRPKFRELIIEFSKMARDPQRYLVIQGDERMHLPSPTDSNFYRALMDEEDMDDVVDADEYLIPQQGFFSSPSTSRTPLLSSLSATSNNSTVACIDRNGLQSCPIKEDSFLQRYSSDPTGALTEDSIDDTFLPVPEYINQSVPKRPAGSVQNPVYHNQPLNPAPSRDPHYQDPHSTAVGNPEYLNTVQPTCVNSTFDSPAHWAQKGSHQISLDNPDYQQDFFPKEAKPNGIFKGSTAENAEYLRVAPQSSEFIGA
T4 sequence (P00533 with tags, fused parts or gaps DEL746-750 limits assumed): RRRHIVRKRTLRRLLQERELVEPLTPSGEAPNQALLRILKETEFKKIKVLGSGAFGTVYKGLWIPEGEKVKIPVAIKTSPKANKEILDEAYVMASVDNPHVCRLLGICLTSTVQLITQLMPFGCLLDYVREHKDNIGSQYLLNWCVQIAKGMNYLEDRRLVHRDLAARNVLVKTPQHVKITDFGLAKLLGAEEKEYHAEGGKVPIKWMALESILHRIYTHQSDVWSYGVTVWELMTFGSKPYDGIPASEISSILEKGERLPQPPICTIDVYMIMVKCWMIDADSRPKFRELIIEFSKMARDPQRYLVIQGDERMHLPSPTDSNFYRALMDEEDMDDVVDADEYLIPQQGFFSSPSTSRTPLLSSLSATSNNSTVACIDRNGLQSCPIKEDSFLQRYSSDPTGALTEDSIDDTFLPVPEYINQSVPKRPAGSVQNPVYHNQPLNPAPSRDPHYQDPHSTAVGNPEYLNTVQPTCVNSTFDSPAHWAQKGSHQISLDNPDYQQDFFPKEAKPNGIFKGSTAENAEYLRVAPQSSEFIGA
T5 sequence (P00533 25-1210 T790M/L858R): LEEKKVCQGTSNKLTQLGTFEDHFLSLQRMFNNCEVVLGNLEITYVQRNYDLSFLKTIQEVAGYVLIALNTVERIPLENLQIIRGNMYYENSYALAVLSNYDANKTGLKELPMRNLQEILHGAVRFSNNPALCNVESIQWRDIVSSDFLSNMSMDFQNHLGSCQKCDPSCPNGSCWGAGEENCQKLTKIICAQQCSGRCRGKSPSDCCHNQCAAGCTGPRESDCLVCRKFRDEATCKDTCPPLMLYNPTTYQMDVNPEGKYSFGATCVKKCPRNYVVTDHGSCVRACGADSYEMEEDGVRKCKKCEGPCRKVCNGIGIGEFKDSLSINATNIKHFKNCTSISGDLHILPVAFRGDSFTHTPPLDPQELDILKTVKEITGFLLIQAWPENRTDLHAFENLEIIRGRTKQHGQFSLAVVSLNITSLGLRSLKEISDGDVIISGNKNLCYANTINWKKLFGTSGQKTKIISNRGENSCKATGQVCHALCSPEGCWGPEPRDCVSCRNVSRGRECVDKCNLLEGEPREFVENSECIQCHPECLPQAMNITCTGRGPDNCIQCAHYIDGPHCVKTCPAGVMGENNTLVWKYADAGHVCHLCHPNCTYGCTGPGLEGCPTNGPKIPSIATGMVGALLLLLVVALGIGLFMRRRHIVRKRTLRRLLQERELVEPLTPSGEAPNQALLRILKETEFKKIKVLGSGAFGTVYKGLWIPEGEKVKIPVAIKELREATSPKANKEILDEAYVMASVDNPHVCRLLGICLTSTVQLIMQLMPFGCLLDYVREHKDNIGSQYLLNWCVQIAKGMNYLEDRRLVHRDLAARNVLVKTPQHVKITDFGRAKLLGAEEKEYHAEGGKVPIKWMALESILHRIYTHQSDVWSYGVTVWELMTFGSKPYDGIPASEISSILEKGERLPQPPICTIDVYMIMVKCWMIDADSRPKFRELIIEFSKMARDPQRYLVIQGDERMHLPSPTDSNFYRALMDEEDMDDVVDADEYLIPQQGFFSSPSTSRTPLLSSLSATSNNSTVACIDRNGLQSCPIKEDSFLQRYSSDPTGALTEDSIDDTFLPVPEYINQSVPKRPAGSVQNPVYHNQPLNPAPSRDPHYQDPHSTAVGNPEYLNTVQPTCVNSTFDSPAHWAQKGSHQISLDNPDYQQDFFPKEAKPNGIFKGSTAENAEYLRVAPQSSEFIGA
T8 sequence (P00533 with tags, fused parts or gaps DEL746-750/T790M/C797S limits assumed): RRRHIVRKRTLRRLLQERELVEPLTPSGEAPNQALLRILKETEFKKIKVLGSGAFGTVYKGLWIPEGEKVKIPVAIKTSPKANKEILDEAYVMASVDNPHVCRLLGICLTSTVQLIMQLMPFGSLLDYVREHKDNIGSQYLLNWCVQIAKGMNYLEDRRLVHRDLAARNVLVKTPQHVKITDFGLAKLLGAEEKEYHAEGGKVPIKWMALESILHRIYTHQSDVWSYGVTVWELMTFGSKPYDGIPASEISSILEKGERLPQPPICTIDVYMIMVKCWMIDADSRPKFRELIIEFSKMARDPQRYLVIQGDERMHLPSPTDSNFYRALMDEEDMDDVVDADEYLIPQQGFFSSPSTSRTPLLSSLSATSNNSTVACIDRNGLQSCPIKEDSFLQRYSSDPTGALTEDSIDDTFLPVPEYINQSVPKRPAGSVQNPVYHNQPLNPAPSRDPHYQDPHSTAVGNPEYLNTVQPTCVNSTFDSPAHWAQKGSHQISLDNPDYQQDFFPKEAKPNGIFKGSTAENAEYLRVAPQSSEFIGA
T7 sequence (P00533 25-1210 T790M/C797S/L858R): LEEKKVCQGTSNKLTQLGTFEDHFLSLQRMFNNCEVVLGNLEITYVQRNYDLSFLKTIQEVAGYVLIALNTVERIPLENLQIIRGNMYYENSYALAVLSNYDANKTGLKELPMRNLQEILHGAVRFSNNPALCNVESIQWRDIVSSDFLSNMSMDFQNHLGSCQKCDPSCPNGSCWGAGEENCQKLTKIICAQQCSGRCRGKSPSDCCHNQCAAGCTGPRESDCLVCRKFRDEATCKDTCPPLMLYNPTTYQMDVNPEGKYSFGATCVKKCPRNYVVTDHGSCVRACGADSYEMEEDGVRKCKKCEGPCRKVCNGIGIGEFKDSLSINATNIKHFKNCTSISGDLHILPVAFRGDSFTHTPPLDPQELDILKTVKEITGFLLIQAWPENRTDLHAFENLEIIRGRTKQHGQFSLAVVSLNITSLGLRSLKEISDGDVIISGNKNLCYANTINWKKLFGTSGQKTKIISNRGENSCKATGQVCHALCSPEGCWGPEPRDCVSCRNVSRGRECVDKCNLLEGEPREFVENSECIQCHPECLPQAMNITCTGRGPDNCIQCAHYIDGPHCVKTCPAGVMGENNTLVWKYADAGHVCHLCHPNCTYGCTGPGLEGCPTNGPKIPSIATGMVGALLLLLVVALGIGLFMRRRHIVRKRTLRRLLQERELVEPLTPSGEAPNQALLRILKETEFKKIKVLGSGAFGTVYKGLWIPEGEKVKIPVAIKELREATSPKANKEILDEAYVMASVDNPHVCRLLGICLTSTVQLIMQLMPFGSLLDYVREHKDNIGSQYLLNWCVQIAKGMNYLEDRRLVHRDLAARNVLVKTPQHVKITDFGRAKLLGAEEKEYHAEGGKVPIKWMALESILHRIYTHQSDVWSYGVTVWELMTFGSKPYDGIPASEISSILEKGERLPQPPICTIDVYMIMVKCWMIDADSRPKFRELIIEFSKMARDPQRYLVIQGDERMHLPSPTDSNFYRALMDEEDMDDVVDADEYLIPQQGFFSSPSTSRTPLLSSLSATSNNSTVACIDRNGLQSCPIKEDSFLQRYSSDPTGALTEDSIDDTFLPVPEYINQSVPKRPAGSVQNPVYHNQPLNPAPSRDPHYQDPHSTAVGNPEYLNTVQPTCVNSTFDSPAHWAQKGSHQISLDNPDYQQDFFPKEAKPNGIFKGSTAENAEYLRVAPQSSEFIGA

IC50 [1, 13] [nM]	IC50 [2, 14] [nM]	GI50 [3, 15] [nM]	GI50 [3, 16] [nM]	GI50 [3, 17] [nM]	GI50 [3, 18] [nM]	GI50 [3, 19] [nM]	GI50 [3, 20] [nM]	GI50 [3, 21] [nM]	IC50 [4, 22] [nM]	IC50 [5, 23] [nM]	IC50 [6, 24] [nM]	IC50 [7, 25] [nM]	IC50 [8, 26] [nM]	IC50 [9, 27] [nM]	GI50 ([10]; A-431 cells) [nM]	IC50 [11, 28] [nM]	GI50 [12] [nM]	IC50 [1, 29] [nM]	IC50 [2, 30] [nM]	Structure (SMILES)	further results
647	> 5000	280	241	584	107	298	801	527	> 5000	> 5000	> 5000	4720	> 5000	233	3410	> 5000	515			Cc1cc2cc(n1)-c1cnn(C)c1OCCN1CC3CCC(C3)(C1)n1c(nc3ccc(N4CCC5(CC4)CCN5C)cc31)NC2=O (single isomer, unassigned) [Example B54A]	
																		21	101	CN(C)[C@@H]1CCN(c2ccc3nc4n(c3c2)C23CCC(CC2)CN(CCOc2c(cnn2C)-c2cc(cn(C)c2=O)C(=O)N4)C3)C1 [Example A121]	GI50 [3, 31]: 7.8 nM; GI50 [3, 32]: 44 nM; GI50 [3, 33]: 35 nM; GI50 [3, 34]: 15 nM; GI50 [3, 35]: 61 nM; GI50 [3, 36]: 12 nM; GI50 [3, 37]: 25 nM; IC50 [4, 38]: > 5000 nM; IC50 [5, 39]: 25 nM; IC50 [6, 40]: 477 nM; IC50 [7, 41]: 19 nM; IC50 [8, 42]: 154 nM; IC50 [9, 43]: 10 nM; GI50 [10, 44]: 4970 nM; IC50 [11, 45]: 167 nM; GI50 ([12]; Homo sapiens, PC-9, 72 h): 27 nM
> 5000	> 5000	163	229	828	90	307	1560	378	> 5000	> 5000	> 5000	3890	> 5000	> 5000	8610	> 5000	737			Cc1cc2cc(n1)-c1cnn(C)c1OCCN1CC3CCC(C3)(C1)n1c(nc3ccc(N4CCN(C5COC5)CC4)cc31)NC2=O (single isomer, unassigned) [Example B58A]	
3.2	6	2	2	11	2	2	17	7	1830	4.3	2.3	1.7	1.5	1.6	2080	64	10			Cc1cc2cc(n1)-c1cnn(C)c1OCCN1CC3CCC(C3)(C1)n1c(nc3ccc(N4CCN(C5CC5)CC4)cc31)NC2=O (single isomer, unassigned) [Example B55B]	
																		10	69	CN1CCC2CN(c3ccc4nc5n(c4c3)C34CCC(CC3)CN(CCOc3c(cnn3C)-c3cc(cn(C)c3=O)C(=O)N5)C4)CC21 (stereo not drawn) [Example A127]	GI50 [3, 31]: 8.5 nM; GI50 [3, 32]: 36 nM; GI50 [3, 33]: 38 nM; GI50 [3, 34]: 21 nM; GI50 [3, 35]: 52 nM; GI50 [3, 36]: 7.2 nM; GI50 [3, 37]: 26 nM; IC50 [4, 38]: 4880 nM; IC50 [5, 39]: 15 nM; IC50 [6, 40]: 211 nM; IC50 [7, 41]: 9.2 nM; IC50 [8, 42]: 39 nM; IC50 [9, 43]: 6.1 nM; GI50 [10, 44]: 4680 nM; IC50 [11, 45]: 118 nM; GI50 ([12]; Homo sapiens, PC-9, 72 h): 34 nM
2.8	59	0.79	0.84	18	0.91	2.1	24	0.89	3370	4.6	2.6	2.3	2.6	2.2	1730	212	41			Cc1cc2cc(n1)-c1cnn(C)c1OCCN1CC3CCC(C3)(C1)n1c(nc3ccc(N4CCOCC4)cc31)NC2=O (single isomer, unassigned) [Example B10A, 15,21-Dimethyl-5-(morpholin-4-yl)-23-oxa-2,9,11,16,20,21,26-heptaazaheptacyclo[24.4.1.1^{1,28}.1^{13,17}.0^{2,10}.0^{3,8}.0^{18,22}]tritriaconta-3,5,7,9,13,15,17(33),18(22),19-nonaen-12-one]	
																		3.3	23	Cn1ncc2c1OCCN1CC3CCC(C3)(C1)n1c(nc3cc(F)ccc31)NC(=O)c1cc-2c(=O)n(C)c1 (stereo not drawn) [Example A117B, 6-fluoro-15,21-dimethyl-23-oxa-2,9,11,15,20,21,26-heptaazaheptacyclo[24.4.1.1^{1,28}.1^{13,17}.0^{2,10}.0^{3,8}.0^{18,22}]tritriaconta-3,5,7,9,13,17(33),18(22),19-octaene-12,16-dione]	GI50 [3, 31]: 4.3 nM; GI50 [3, 32]: 20 nM; GI50 [3, 33]: 38 nM; GI50 [3, 34]: 32 nM; GI50 [3, 35]: 80 nM; GI50 [3, 36]: 16 nM; GI50 [3, 37]: 12 nM; IC50 [4, 38]: > 5000 nM; IC50 [5, 39]: 23 nM; IC50 [6, 40]: 1910 nM; IC50 [7, 41]: 8.1 nM; IC50 [8, 42]: 280 nM; IC50 [9, 43]: 2.5 nM; GI50 [10, 44]: 1510 nM; IC50 [11, 45]: 463 nM; GI50 ([12]; Homo sapiens, PC-9, 72 h): 57 nM
